Laboratory results as given in the supplement of paper PMC10307832.

Columns and labels:
XMD14-99 + Trametinib = compound: CN1CCN(CC1)C2=CC(=C(C=C2)NC3=NC(=C(S3)C(=O)C4=C(C=CC=C4Cl)Cl)N)OC [XMD14-99] + CC(=O)Nc1cccc(-n2c(=O)n(C3CC3)c(=O)c3c(Nc4ccc(I)cc4F)n(C)c(=O)c(C)c32)c1 [Trametinib] (partner 0.02 µM); test: relative viability (nuclei count vs DMSO), 5 days (fraction); higher = more cells survive
Procedure, shortened: (§1)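 Cells from lung cancer lines were seeded into 1536-well plates and, one day later, dosed by pin tool. Treatments were either a single drug or a fixed dose of an anchor drug with five library-drug doses (not always all listed) in √10 steps. After 5 days, nuclei were stained in a one-step fixation (final 0.05% Triton X-100, 1% formaldehyde, 1 ug/ml Hoechst) and counted on 4× images, and relative viability is the treated-to-vehicle nuclei ratio, as the median of duplicate plates.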

XMD14-99 + AZD7762 = compound: CN1CCN(CC1)C2=CC(=C(C=C2)NC3=NC(=C(S3)C(=O)C4=C(C=CC=C4Cl)Cl)N)OC [XMD14-99] + NC(=O)Nc1cc(-c2cccc(F)c2)sc1C(=O)N[C@H]1CCCNC1 [AZD7762] (partner 0.2 µM); test: as above
Procedure, shortened: as §1

Cell Line	relative viability (XMD14-99 + Trametinib; first compound 0.08 µM)	relative viability (XMD14-99 + Trametinib; first compound 0.8 µM)	relative viability (XMD14-99 + Trametinib; first compound 2.53 µM)	relative viability (XMD14-99 + Trametinib; first compound 8 µM)	relative viability (XMD14-99 + AZD7762; first compound 0.08 µM)	relative viability (XMD14-99 + AZD7762; first compound 0.8 µM)	relative viability (XMD14-99 + AZD7762; first compound 2.53 µM)	relative viability (XMD14-99 + AZD7762; first compound 8 µM)
201T	0.693	0.709	0.691	0.664	0.529	0.598	0.583	0.607
A-427	0.762	0.668	0.651	0.553	0.692	0.621	0.496	0.454
ABC-1	–	–	–	–	0.859	1.03	0.865	0.762
BEN	0.971	1.15	1	0.879	0.594	0.736	0.596	0.514
CAL-12T	0.358	0.305	0.268	0.241	0.65	0.549	0.671	0.573
COR-L23	0.518	0.56	0.546	0.363	–	–	–	–
COR-L 105	0.407	0.493	0.432	0.431	–	–	–	–
ChaGo-K-1	0.861	0.863	0.895	0.829	0.844	0.901	0.826	0.825
EKVX	0.321	0.298	0.382	0.294	0.654	0.692	0.651	0.522
EMC-BAC-2	0.832	0.716	0.744	0.668	1.15	1.11	1.08	0.835
EPLC-272H	0.274	0.265	0.287	0.251	0.165	0.207	0.254	0.433
H3255	0.563	0.67	0.54	0.488	0.854	0.777	0.75	0.586
HARA	0.577	0.549	0.465	0.466	0.334	0.261	0.237	0.217
HCC-15	0.415	0.412	0.353	0.349	1.22	1.17	1.21	1.04
HCC-44	1.02	1.04	1.11	1.01	1.05	1.04	0.993	0.981
HCC-78	0.628	0.711	0.753	0.438	0.567	0.565	0.749	0.404
HCC-366	0.424	0.309	0.377	0.261	0.237	0.215	0.251	0.187
HCC-827	0.539	0.529	0.542	0.432	0.227	0.202	0.203	0.191
HOP-62	0.382	0.419	0.412	0.368	0.489	0.57	0.726	0.513
LC-2-ad	0.956	0.88	0.998	0.873	0.869	0.872	0.889	0.735
LCLC-97TM1	0.172	0.229	0.208	0.18	0.346	0.293	0.303	0.227
LCLC-103H	0.702	0.716	0.719	0.665	0.804	0.837	0.781	0.681
LK-2	0.571	0.738	0.706	0.646	0.375	0.41	0.354	0.235
LOU-NH91	0.865	0.829	0.793	0.762	0.785	0.814	0.714	0.675
LU99A	0.559	0.61	0.512	0.394	0.3	0.227	0.31	0.235

Cell Line	relative viability (XMD14-99 + Trametinib; first compound 0.08 µM)	relative viability (XMD14-99 + Trametinib; first compound 0.8 µM)	relative viability (XMD14-99 + Trametinib; first compound 2.53 µM)	relative viability (XMD14-99 + Trametinib; first compound 8 µM)	relative viability (XMD14-99 + AZD7762; first compound 0.08 µM)	relative viability (XMD14-99 + AZD7762; first compound 0.8 µM)	relative viability (XMD14-99 + AZD7762; first compound 2.53 µM)	relative viability (XMD14-99 + AZD7762; first compound 8 µM)
LXF-289	0.632	0.639	0.611	0.529	1.14	0.969	1.12	0.98
NCI-H23	0.487	0.326	0.47	0.364	0.284	0.312	0.25	0.188
NCI-H322M	0.491	0.565	0.593	0.521	0.593	0.542	0.583	0.509
NCI-H358	0.118	0.179	0.134	0.127	0.487	0.593	0.461	0.455
NCI-H441	0.523	0.436	0.389	0.263	0.939	1.2	1.3	0.793
NCI-H460	0.32	0.228	0.126	0.089	0.619	0.601	0.634	0.453
NCI-H520	0.656	0.747	0.745	0.437	–	–	–	–
NCI-H522	0.783	0.901	0.75	0.85	0.693	1.01	0.806	0.924
NCI-H596	0.749	0.849	1.06	0.764	1.16	1.01	1.29	1.15
NCI-H647	0.456	0.495	0.582	0.442	0.506	0.472	0.433	0.335
NCI-H650	0.861	0.932	1.05	0.907	1.05	1.06	1.16	0.851
NCI-H661	0.573	0.598	0.481	0.516	–	–	–	–
NCI-H727	0.352	0.403	0.384	0.39	0.582	0.598	0.506	0.578
NCI-H838	0.502	0.486	0.433	0.357	0.91	0.952	0.975	0.897
NCI-H1355	0.439	0.434	0.355	0.33	0.85	0.625	0.652	0.572
NCI-H1395	0.992	1.05	0.958	1	0.387	0.462	0.363	0.38
NCI-H1437	0.532	0.402	0.347	0.305	1.18	1.05	0.991	0.719
NCI-H1648	0.613	0.46	0.459	0.466	0.715	0.625	0.672	0.581
NCI-H1650	0.642	0.738	0.542	0.503	–	–	–	–
NCI-H1651	0.827	0.835	0.88	0.835	0.429	0.466	0.444	0.46
NCI-H1666	0.883	0.699	0.739	0.864	0.858	0.801	0.731	0.736
NCI-H1703	–	–	–	–	0.0933	0.124	0.143	0.118
NCI-H1734	0.659	0.68	0.653	0.642	0.487	0.513	0.459	0.51
NCI-H1755	0.794	0.777	0.752	0.559	0.44	0.366	0.467	0.357
NCI-H1792	0.419	0.465	0.399	0.302	0.822	0.556	0.599	0.305

Cell Line	relative viability (XMD14-99 + Trametinib; first compound 0.08 µM)	relative viability (XMD14-99 + Trametinib; first compound 0.8 µM)	relative viability (XMD14-99 + Trametinib; first compound 2.53 µM)	relative viability (XMD14-99 + Trametinib; first compound 8 µM)	relative viability (XMD14-99 + AZD7762; first compound 0.08 µM)	relative viability (XMD14-99 + AZD7762; first compound 0.8 µM)	relative viability (XMD14-99 + AZD7762; first compound 2.53 µM)	relative viability (XMD14-99 + AZD7762; first compound 8 µM)
NCI-H1793	0.462	0.38	0.39	0.268	0.512	0.298	0.389	0.298
NCI-H1915	0.301	0.311	0.25	0.224	0.668	0.676	0.701	0.629
NCI-H1944	0.446	0.374	0.381	0.338	0.501	0.539	0.436	0.328
NCI-H1975	0.263	0.416	0.32	0.308	0.743	0.745	0.717	0.569
NCI-H1993	0.593	0.522	0.614	0.54	0.879	0.702	0.82	0.593
NCI-H2009	0.258	0.317	0.254	0.185	–	–	–	–
NCI-H2023	0.495	0.562	0.754	0.442	–	–	–	–
NCI-H2085	0.49	0.621	0.498	0.485	0.95	0.914	0.881	0.72
NCI-H2087	0.174	0.176	0.162	0.122	1.26	1.14	1.04	0.764
NCI-H2126	0.545	0.569	0.621	0.56	0.979	0.984	1.05	0.942
NCI-H2170	0.924	0.873	0.828	0.786	0.787	0.928	0.875	0.702
NCI-H2228	0.612	0.534	0.431	0.209	–	–	–	–
NCI-H2342	0.885	0.882	0.949	0.848	0.55	0.502	0.583	0.458
NCI-H2347	0.278	0.288	0.304	0.269	0.814	0.725	0.673	0.505
NCI-H2405	0.641	0.751	0.626	0.575	0.745	0.809	0.586	0.479
NCI-H3122	0.261	0.22	0.269	0.22	0.978	0.893	0.936	0.555
PC-3 [JPC-3]	0.749	0.59	0.645	0.577	0.905	0.789	0.681	0.553
PC-14	0.668	0.726	0.59	0.217	0.37	0.416	0.36	0.309
RERF-LC-KJ	0.808	0.846	0.76	0.682	0.902	1	0.86	0.794
SK-LU-1	0.538	0.502	0.473	0.309	–	–	–	–
SK-MES-1	0.524	0.564	0.622	0.392	–	–	–	–
SW 900	0.779	0.876	0.752	0.756	0.633	0.681	0.71	0.548
SW 1573	0.547	0.58	0.74	0.47	–	–	–	–
